Test results reported in patent EP1167342A1, “Novel substituted nitrocatechols, their use in the treatment of some central and peripheral nervous system disorders and pharmaceutical compositions containing them” (Portela & Ca., S.A., priority 2000, dated 2002).

Columns and labels:
[1] = target: T1, COMT (Homo sapiens, UniProt P21964); experiment: COMT activity in intact SK-N-SH cells (methylation of adrenaline to metanephrine, HPLC with electrochemical detection); format: cell-based; details: concentration of test compound 100 nM, means ±SEM of n=4-8
T1 construct: COMT activity was evaluated in cell monolayers by the ability to methylate adrenaline; host or cells: SK-N-SH
T1 sequence (P21964 1-271): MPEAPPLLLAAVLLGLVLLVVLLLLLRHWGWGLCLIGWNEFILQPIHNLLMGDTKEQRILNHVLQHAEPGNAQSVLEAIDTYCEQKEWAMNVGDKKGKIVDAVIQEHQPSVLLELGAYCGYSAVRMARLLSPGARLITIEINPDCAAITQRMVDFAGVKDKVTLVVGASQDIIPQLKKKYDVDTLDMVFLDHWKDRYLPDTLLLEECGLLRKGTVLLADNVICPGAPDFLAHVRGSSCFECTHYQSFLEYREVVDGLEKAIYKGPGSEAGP

[2] = tested on: Liver COMT; experiment: Ex vivo COMT activity in mouse liver homogenates after administration of test compound by gastric tube; set-up: species or system NMRI mice; details: for Liver COMT (% of control) 1h / Liver COMT (% of control) 6h: homogenates of mice liver, dose not given, means±S.E.M. of 4-8 experiments; for Liver COMT (% of control) 1h: 1 h after administration by gastric tube; for Liver COMT (% of control) 6h: 6 h after administration by gastric tube
[3] = tested on: Brain COMT; experiment: Ex vivo COMT activity in mouse brain homogenates after administration of test compound by gastric tube; set-up: species or system NMRI mice; details: homogenates of mice brain, dose not given, means±S.E.M. of 4-8 experiments; for Brain COMT (% of control) 1h: 1 h after administration by gastric tube; for Brain COMT (% of control) 6h: 6 h after administration by gastric tube

Structure (SMILES): CC1CC(C)CN(CC(=O)c2cc(O)c(O)c([N+](=O)[O-])c2)C1.Cl (centres unmarked) [Compound 12, 1-(3,4-Dihydroxy-5-nitro-phenyl)-2-(3,5-dimethyl-piperidin-1-yl)-ethanone hydrochloride]
- COMT activity (% of control) [1]: 15.4±1.8 % of control
- Liver COMT (% of control) 1h [2]: 33.0±2.0 % of control
- Liver COMT (% of control) 6h [2]: 52.0±13.0 % of control
- Brain COMT (% of control) 1h [3]: 32.0±2.0 % of control
- Brain COMT (% of control) 6h [3]: 84.0±6.0 % of control

Structure (SMILES): Cl.N#CC1(c2ccccc2)CCN(CCC(=O)c2cc(O)c(O)c([N+](=O)[O-])c2)CC1 [Compound 15, 1-[3-(3,4-Dihydroxy-5-nitro-phenyl)-3-oxo-propyl]-4-phenyl-piperidine-4-carbonitrile hydrochloride]
- COMT activity (% of control) [1]: 2.9±0.3 % of control
- Liver COMT (% of control) 1h [2]: 51.7±5.9 % of control
- Liver COMT (% of control) 6h [2]: 37.9±8.4 % of control
- Brain COMT (% of control) 1h [3]: 93.0±9.0 % of control
- Brain COMT (% of control) 6h [3]: 122.0±9.0 % of control

Structure (SMILES): Cl.O=C(CC(c1ccccc1)N1CCOCC1)c1cc(O)c(O)c([N+](=O)[O-])c1 (centres unmarked) [Compound 5, 1-(3,4-Dihydroxy-5-nitro-phenyl)-3-morpholin-4-yl-3-phenyl-propan-1-one hydrochloride]
- COMT activity (% of control) [1]: 40.2±8.7 % of control
- Liver COMT (% of control) 1h [2]: 16.7±1.6 % of control
- Liver COMT (% of control) 6h [2]: 35.2±9.6 % of control
- potency upon liver COMT compared with brain COMT ([2]; mice, after oral administration, statement in words): equally potent in inhibiting liver and brain COMT activity
- Brain COMT (% of control) 1h [3]: 38.6±6.4 % of control
- Brain COMT (% of control) 6h [3]: 57.2±5.1 % of control

Structure (SMILES): O=C(COc1cccc2ccccc12)c1cc(O)c(O)c([N+](=O)[O-])c1 [Compound 25, 1-(3,4-Dihydroxy-5-nitro-phenyl)-2-(naphthalen-1-yloxy)-ethanone]
- COMT activity (% of control) [1]: 0.0±0.0 % of control
- Liver COMT (% of control) 1h [2]: 13.7±1.9 % of control
- Liver COMT (% of control) 6h [2]: 31.1±5.5 % of control
- Brain COMT (% of control) 1h [3]: 62.8±5.1 % of control
- Brain COMT (% of control) 6h [3]: 92.4±10.8 % of control

Structure (SMILES): Cl.Cl.Cl.O=C(CN1CCN(c2ccccn2)CC1)c1cc(O)c(O)c([N+](=O)[O-])c1 [Compound 14, 1-(3,4-Dihydroxy-5-nitro-phenyl)-2-(4-pyridin-2-yl-piperazin-1-yl)-ethanone trihydrochloride]
- COMT activity (% of control) [1]: 8.5±0.3 % of control
- Liver COMT (% of control) 1h [2]: 33.6±5.6 % of control
- Liver COMT (% of control) 6h [2]: 50.3±5.6 % of control
- Brain COMT (% of control) 1h [3]: 95.4±11.4 % of control
- Brain COMT (% of control) 6h [3]: 121.2±11.8 % of control

Structure (SMILES): Cl.O=C(CN1CCc2ccccc2C1)c1cc(O)c(O)c([N+](=O)[O-])c1 [Compound 21, 2-(3,4-Dihydro-1H-isoquinolin-2-yl)-1-(3,4-dihydroxy-5-nitro-phenyl)-ethanone hydrochloride]
- COMT activity (% of control) [1]: 0.9±0.6 % of control
- Liver COMT (% of control) 1h [2]: 55.1±5.0 % of control
- Liver COMT (% of control) 6h [2]: 77.5±18.0 % of control
- Brain COMT (% of control) 1h [3]: 96.0±8.0 % of control
- Brain COMT (% of control) 6h [3]: 104.0±17.0 % of control

Structure (SMILES): COc1ccc(OCC(=O)c2cc(O)c(O)c([N+](=O)[O-])c2)cc1 [Compound 9, 1-(3,4-Dihydroxy-5-nitro-phenyl)-2-(4-methoxy-phenoxy)-ethanone]
- COMT activity (% of control) [1]: 12.8±0.4 % of control
- Liver COMT (% of control) 1h [2]: 29.0±1.0 % of control
- Liver COMT (% of control) 6h [2]: 35.0±6.0 % of control
- Brain COMT (% of control) 1h [3]: 59.0±6.0 % of control
- Brain COMT (% of control) 6h [3]: 93.0±9.0 % of control

Structure (SMILES): Cl.O=C(CCN1CCSCC1)c1cc(O)c(O)c([N+](=O)[O-])c1 [Compound 19, 1-(3,4-Dihydroxy-5-nitro-phenyl)-3-thiomorpholin-4-yl-propan-1-one hydrochloride]
- COMT activity (% of control) [1]: 6.8±2.3 % of control
- Liver COMT (% of control) 1h [2]: 30.3±4.0 % of control
- Liver COMT (% of control) 6h [2]: 57.9±8.6 % of control
- Brain COMT (% of control) 1h [3]: 93.0±19.0 % of control
- Brain COMT (% of control) 6h [3]: 107.0±3.0 % of control

Structure (SMILES): Cl.O=C(CCN1CCC(Cc2ccccc2)CC1)c1cc(O)c(O)c([N+](=O)[O-])c1 [Compound 24, 3-(4-Benzyl-piperidin-1-yl)-1-(3,4-dihydroxy-5-nitro-phenyl)-propan-1-one hydrochloride]
- COMT activity (% of control) [1]: 0.0±0.0 % of control
- Liver COMT (% of control) 1h [2]: 16.5±1.5 % of control
- Liver COMT (% of control) 6h [2]: 37.7±3.9 % of control
- Brain COMT (% of control) 1h [3]: 33.0±8.0 % of control
- Brain COMT (% of control) 6h [3]: 98.0±2.0 % of control

Structure (SMILES): CCN(CC)C(C)C(=O)c1cc(O)c(O)c([N+](=O)[O-])c1.Cl (centres unmarked) [Compound 7, 2-Diethylamino-1-(3,4-dihydroxy-5-nitro-phenyl)-propan-1-one hydrochloride]
- COMT activity (% of control) [1]: 9.0±0.2 % of control
- Liver COMT (% of control) 1h [2]: 38.4±2.8 % of control
- Liver COMT (% of control) 6h [2]: 57.1±4.9 % of control
- Brain COMT (% of control) 1h [3]: 74.0±12.0 % of control
- Brain COMT (% of control) 6h [3]: 126.0±8.0 % of control

Structure (SMILES): CC1CN(CC(=O)c2cc(O)c(O)c([N+](=O)[O-])c2)CC(C)O1.Cl (centres unmarked) [Compound 11, 1-(3,4-Dihydroxy-5-nitro-phenyl)-2-(2,6-dimethyl-morpholin-4-yl)-ethanone hydrochloride]
- COMT activity (% of control) [1]: 14.8±1.3 % of control
- Liver COMT (% of control) 1h [2]: 38.0±5.0 % of control
- Liver COMT (% of control) 6h [2]: 73.0±10.0 % of control
- Brain COMT (% of control) 1h [3]: 80.0±5.0 % of control
- Brain COMT (% of control) 6h [3]: 103.0±7.0 % of control
